The target of experiment [1] is GDP-bound KRAS protein (aa 1-169), containing both G12C and C118A amino acid substitutions (Homo sapiens (Human), UniProt P01116, C118A/G12C). As to the kind of experiment: Coupled nucleotide exchange assay (SOS-mediated nucleotide exchange, AlphaScreen). The settings on record: read-out: Coupled exchange IC50 (5 min; μM); 5 min compound pre-incubation. It is filed as biochemical.
Method: Coupled Nucleotide Exchange Assay:
Following compound pre-incubation, purified SOS protein (aa 564-1049) and GTP (Roche 10106399001) were added to the assay wells and incubated for an additional 30 min (for 5 min compound pre-incubation) or 1 hour (for 2 hour compound pre-incubation). […] The assay plates were then read on a PerkinElmer EnVision Multilabel Reader, using AlphaScreen® technology, and data were analyzed using a 4-parameter logistic model to calculate IC50 values.

Experiment [2] has as its system Phosphorylation of ERK1/2 in MIA PaCa-2 cells. As to the kind of experiment: Phospho-ERK1/2 MSD assay in MIA PaCa-2 cells. The class given is cell-based. The settings on record: Homo sapiens, MIA PaCa-2, 2 h, read-out: p-ERK IC50 (2 h, MiaPaCa-2; μM), 2 h compound treatment, MIA PaCa-2 cells, EGF stimulated. An outline of the steps: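 Phospho-ERK1/2 measured by MSD electrochemiluminescence kit in RIPA lysates of MIA PaCa-2 cells. Cells were treated with compound titrations for 2 or 4 h at 37 °C, 5% CO2, followed by a 10 min pulse of 10 ng/mL EGF.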

The test system of experiment [3] is Phosphorylation of ERK1/2 in A549 cells. Put plainly: Phospho-ERK1/2 MSD assay in A549 cells. The class given is cell-based. The settings on record: Homo sapiens, A549, 2 h, read-out: p-ERK IC50 (2 h, A549; μM), 2 h compound treatment, A549 cells, EGF stimulated. An outline of the steps:
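Dose-response treatment lasted 2 or 4 h in RPMI 1640/10% FBS at 37 °C. EGF-stimulated (10 ng/mL, 10 min) ERK1/2 phosphorylation was then quantified in cell lysates with a Meso Scale Discovery phospho-ERK1/2 assay.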

For orientation: IC50 means the concentration that inhibits the measured activity by half.

GDP-bound KRAS protein (aa 1-169), containing both G12C and C118A amino acid substitutions, sequence (P01116 other isoform, or with tags, fused parts or gaps G12C/C118A): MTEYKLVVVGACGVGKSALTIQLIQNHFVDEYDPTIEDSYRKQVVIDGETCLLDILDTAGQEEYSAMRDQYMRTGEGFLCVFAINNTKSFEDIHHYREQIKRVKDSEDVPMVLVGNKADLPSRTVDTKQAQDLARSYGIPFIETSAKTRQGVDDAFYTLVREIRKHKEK

`C=CC(=O)N1C[C@H](C)N(c2nc(=O)n(-c3c(C)ccnc3C(C)C)c3nc(-c4cccc(F)c4)c(Cl)cc23)C[C@H]1C` (atropisomer, axis not shown; (M)) [Example 92-52, (M)-6-Chloro-4-[(2S,5R)-2,5-dimethyl-4-prop-2-enoyl-piperazin-1-yl]-7-(3-fluorophenyl)-1-(2-isopropyl-4-methyl-3-pyridyl)pyrido [2,3-d]pyrimidin-2-one]: the IC50 was 0.161 µM in experiment [1], 0.196 µM in experiment [2] and more than 7.5 µM in experiment [3].

With `C=CC(=O)N1C[C@H](C)N(c2nc(=O)n(-c3c(C)ccnc3C(C)C)c3nc(-c4cccc(C)c4)c(Cl)cc23)C[C@H]1C` (atropisomer, axis not shown; (M)) [Example 92-53, (M)-6-Chloro-4-[(2S,5R)-2,5-dimethyl-4-prop-2-enoyl-piperazin-1-yl]-1-(2-isopropyl-4-methyl-3-pyridyl)-7-(m-tolyl)pyrido[2,3-d]pyrimidin-2-one], the IC50 in experiment [1] is 0.135 µM; in experiment [2], 0.309 µM; in experiment [3], more than 7.5 µM.

With `C=CC(=O)N1C[C@H](C)N(c2nc(=O)n(-c3c(C)ccnc3C(C)C)c3nc(-c4cccc(Cl)c4)c(Cl)cc23)C[C@H]1C` (atropisomer, axis not shown; (M)) [Example 92-54, (M)-6-Chloro-7-(3-chlorophenyl)-4-[(2S,5R)-2,5-dimethyl-4-prop-2-enoyl-piperazin-1-yl]-1-(2-isopropyl-4-methyl-3-pyridyl)pyrido [2,3-d]pyrimidin-2-one], the IC50 in experiment [1] is 0.169 µM; in experiment [2], 0.217 µM; in experiment [3] it was more than 7.5 µM.

As to `C=CC(=O)N1C[C@H](C)N(c2nc(=O)n(-c3c(C)ccnc3C(C)C)c3nc(-c4ccccc4CC)c(Cl)cc23)C[C@H]1C` (atropisomer, axis not shown; (M)) [Example 92-55, (M)-6-Chloro-4-[(2S,5R)-2,5-dimethyl-4-prop-2-enoyl-piperazin-1-yl]-7-(2-ethylphenyl)-1-(2-isopropyl-4-methyl-3-pyridyl)pyrido [2,3-d]pyrimidin-2-one], the values for the IC50 in experiment [1], in experiment [2] and in experiment [3] were 0.021 µM, 0.018 µM and more than 7.5 µM, respectively.

On to `C=CC(=O)N1C[C@H](C)N(c2nc(=O)n(-c3c(C)ccnc3C(C)C)c3nc(-c4ccc(F)cc4)c(Cl)cc23)C[C@H]1C` (atropisomer, axis not shown; (M)) [Example 92-57, (M)-6-Chloro-4-[(2S,5R)-2,5-dimethyl-4-prop-2-enoyl-piperazin-1-yl]-7-(4-fluorophenyl)-1-(2-isopropyl-4-methyl-3-pyridyl)pyrido [2,3-d]pyrimidin-2-one], for which the IC50 in experiment [1] is 0.126 µM; in experiment [2], 0.126 µM; in experiment [3] it was more than 7.5 µM.

Take `C=CC(=O)N1C[C@H](C)N(c2nc(=O)n(-c3c(C)ccnc3C(C)C)c3nc(-c4cccc(C)c4F)c(Cl)cc23)C[C@H]1C` (atropisomer, axis not shown; (M)) [Example 92-58, (M)-6-Chloro-4-[(2S,5R)-2,5-dimethyl-4-prop-2-enoyl-piperazin-1-yl]-7-(2-fluoro-3-methyl-phenyl)-1-(2-isopropyl-4-methyl-3-pyridyl)pyrido [2,3-d]pyrimidin-2-one]: the IC50 in experiment [1] was 0.074 µM; in experiment [2] it was 0.023 µM; in experiment [3], more than 7.5 µM.

For `C=CC(=O)N1C[C@H](C)N(c2nc(=O)n(-c3c(C)ccnc3C(C)C)c3nc(-c4cccc(F)c4C)c(Cl)cc23)C[C@H]1C` (atropisomer, axis not shown; (M)) [Example 92-59, (M)-6-Chloro-4-[(2S,5R)-2,5-dimethyl-4-prop-2-enoyl-piperazin-1-yl]-7-(3-fluoro-2-methyl-phenyl)-1-(2-isopropyl-4-methyl-3-pyridyl)pyrido [2,3-d]pyrimidin-2-one], the IC50 was 0.028 µM in experiment [1], 0.034 µM in experiment [2] and more than 7.5 µM in experiment [3].

In the case of `C=CC(=O)N1C[C@H](C)N(c2nc(=O)n(-c3c(C)ccnc3C(C)C)c3nc(-c4cc(C)ccc4F)c(Cl)cc23)C[C@H]1C` (atropisomer, axis not shown; (M)) [Example 92-60, (M)-6-Chloro-4-[(2S,5R)-2,5-dimethyl-4-prop-2-enoyl-piperazin-1-yl]-7-(2-fluoro-5-methyl-phenyl)-1-(2-isopropyl-4-methyl-3 pyridyl)pyrido [2,3-d]pyrimidin-2-one], the IC50 in experiment [1] was 0.02 µM; in experiment [2], 0.018 µM; in experiment [3], more than 7.5 µM.

On to `C=CC(=O)N1C[C@H](C)N(c2nc(=O)n(-c3c(C)ccnc3C(C)C)c3nc(-c4ccc(F)cc4F)c(Cl)cc23)C[C@H]1C` (atropisomer, axis not shown; (M)) [Example 92-61, (M)-6-Chloro-7-(2,4-difluorophenyl)-4-[(2S,5R)-2,5-dimethyl-4-prop-2-enoyl-piperazin-1-yl]-1-(2-isopropyl-4-methyl-3-pyridyl)pyrido [2,3-d]pyrimidin-2-one], for which the IC50 in experiment [1] is 0.008 µM; in experiment [2], 0.027 µM; in experiment [3], more than 7.5 µM.

`C=CC(=O)N1C[C@H](C)N(c2nc(=O)n(-c3c(C)ccnc3C(C)C)c3nc(-c4cccc(F)c4OC)c(Cl)cc23)C[C@H]1C` (atropisomer, axis not shown; (M)) [Example 92-62, (M)-6-Chloro-4-[(2S,5R)-2,5-dimethyl-4-prop-2-enoyl-piperazin-1-yl]-7-(3-fluoro-2-methoxy-phenyl)-1-(2-isopropyl-4-methyl-3-pyridyl)pyrido [2,3-d]pyrimidin-2-one]: the IC50 in experiment [1] was 0.01 µM; in experiment [2], 0.075 µM; in experiment [3] it was more than 7.5 µM.

For the compound `C=CC(=O)N1C[C@H](C)N(c2nc(=O)n(-c3c(C)ccnc3C(C)C)c3nc(-c4cccc(F)c4C(F)(F)F)c(Cl)cc23)C[C@H]1C` (atropisomer, axis not shown; (M)) [Example 92-63, (M)-6-Chloro-4-[(2S,5R)-2,5-dimethyl-4-prop-2-enoyl-piperazin-1-yl]-7-[3-fluoro-2-(trifluoromethyl)phenyl]-1-(2-isopropyl-4-methyl-3-pyridyl)pyrido [2,3-d]pyrimidin-2-one], the IC50 in experiment [1] is 0.039 µM; in experiment [2], 0.052 µM; in experiment [3] it was more than 7.5 µM.

`C=CC(=O)N1C[C@H](C)N(c2nc(=O)n(-c3c(C)ccnc3C(C)C)c3nc(-c4cccc(F)c4Cl)c(Cl)cc23)C[C@H]1C` (atropisomer, axis not shown; (M)) [Example 92-64, (M)-6-Chloro-7-(2-chloro-3-fluoro-phenyl)-4-[(2S,5R)-2,5-dimethyl-4-prop-2-enoyl-piperazin-1-yl]-1-(2-isopropyl-4-methyl-3-pyridyl)pyrido [2,3-d]pyrimidin-2-one]: the IC50 in experiment [1] was 0.039 µM; in experiment [2], 0.044 µM; in experiment [3] it was more than 7.5 µM.

On to `C=CC(=O)N1C[C@H](C)N(c2nc(=O)n(-c3c(C)ccnc3C(C)C)c3nc(-c4cc(F)ccc4F)c(Cl)cc23)C[C@H]1C` (atropisomer, axis not shown; (M)) [Example 92-65, (M)-6-Chloro-7-(2,5-difluorophenyl)-4-[(2S,5R)-2,5-dimethyl-4-prop-2-enoyl-piperazin-1-yl]-1-(2-isopropyl-4-methyl-3-pyridyl)pyrido [2,3-d]pyrimidin-2-one], for which the IC50 in experiment [1] is 0.066 µM; in experiment [2] it was 0.046 µM; in experiment [3], more than 7.5 µM.

For the origin of these results see US11285156B2, “Substituted piperazines as KRAS G12C inhibitors” (Amgen Inc., priority 2018, dated 2022).
